{"source": "ChEMBL document CHEMBL5376010", "about": "“Formation of Trideuteromethylated Artifacts of Pyrrole-Containing Natural Products” (J Nat Prod, 2024)", "key": {"[1]": {"tested_on": "Panel NCI-60 (60 carcinoma cell lines)", "experiment": "Anticancer activity against human Panel NCI-60 (60 carcinoma cell lines) assessed as growth inhibition", "format": "functional"}, "[2]": {"tested_on": "Panel NCI-60 (60 carcinoma cell lines)", "experiment": "Anticancer activity against human Panel NCI-60 (60 carcinoma cell lines) assessed as cell growth inhibition at 10 uM", "format": "functional, cell-based"}, "Homo sapiens [3]": {"species_on_record": "Homo sapiens", "experiment": "Selectivity ratio of IC50 for human HaCaT cells to IC50 for human MCC26 cells", "conditions": "tested as the 2H-labelled form"}, "Homo sapiens [4]": {"species_on_record": "Homo sapiens", "experiment": "Selectivity ratio of IC50 for human HaCaT cells to IC50 for human UISO cells", "conditions": "tested as the 2H-labelled form"}, "Homo sapiens [5]": {"species_on_record": "Homo sapiens", "experiment": "Selectivity ratio of IC50 for human HaCaT cells to IC50 for human WaGa cells", "conditions": "tested as the 2H-labelled form"}, "Homo sapiens [6]": {"species_on_record": "Homo sapiens", "experiment": "Selectivity ratio of IC50 for human HaCaT cells to IC50 for human MKL-1 cells", "conditions": "tested as the 2H-labelled form"}, "Homo sapiens [7]": {"species_on_record": "Homo sapiens", "experiment": "Selectivity ratio of IC50 for human HaCaT cells to IC50 for human MCC13 cells", "conditions": "tested as the 2H-labelled form"}, "[8]": {"experiment": "Anticancer activity against human UISO cells assessed as inhibition of cell growth", "format": "functional, cell-based"}, "[9]": {"experiment": "Cytotoxicity against human HaCaT cells assessed as inhibition of cell growth", "format": "toxicity, cell-based"}, "[10]": {"experiment": "Anticancer activity against human WaGa cells assessed as inhibition of cell growth", "format": "functional, cell-based"}, "[11]": {"experiment": "Anticancer activity against human MCC26 cells assessed as inhibition of cell growth", "format": "functional, cell-based"}, "[12]": {"experiment": "Anticancer activity against human MCC13 cells assessed as inhibition of cell growth", "format": "functional, cell-based"}, "[13]": {"experiment": "Anticancer activity against human MKL-1 cells assessed as inhibition of cell growth", "format": "functional, cell-based"}}, "note": "Active and inactive are the calls of the source. No cut-off for these calls is given here.", "data": [{"smiles": "O=C1C(Br)=CC2(C=C1Br)CCNC1=C2C2=NCCc3c(Br)[nH]c(c32)C1=O", "values": [{"measurement": "GI50", "setting": "[1]", "value": 0.42, "unit": "µM"}]}, {"smiles": "Cc1[nH]c2c3c1CC[N+]1=C3C3=C(N[C@@H]4C[C@@]35C(=CC(=O)[C@@H]1[C@@H]5Sc1ncn(C)c1C[C@H](N)C(=O)O)S4)C2=O", "values": [{"measurement": "Activity", "setting": "[2]; tested as the 2H-labelled form", "value": "inactive"}]}, {"smiles": "O=C1C(Br)=CC2(C=C1Br)CCNC1=C2C2=NCCc3c[nH]c(c32)C1=O", "note": "[DISCORHABDIN C]", "values": [{"measurement": "GI50", "setting": "[1]", "value": 0.13, "unit": "µM"}]}, {"smiles": "Cc1[nH]c2c3c1CC[N+]1=C3C3=C(N[C@@H]4C[C@@]35C(=CC(=O)[C@@H]1[C@@H]5O)S4)C2=O", "values": [{"measurement": "Ratio IC50", "setting": "Homo sapiens [3]", "value": 3}, {"measurement": "Ratio IC50", "setting": "Homo sapiens [4]", "value": 3}, {"measurement": "Ratio IC50", "setting": "Homo sapiens [5]", "value": 13}, {"measurement": "Ratio IC50", "setting": "Homo sapiens [6]", "value": 13}, {"measurement": "Ratio IC50", "setting": "Homo sapiens [7]", "value": 3}, {"measurement": "GI50", "setting": "[1]", "value": 5.75, "unit": "µM"}]}, {"smiles": "O=C1C2=C3C4=[N+](CCc5c[nH]c1c54)[C@@H]1C(=O)C=C4S[C@@H](C[C@@]43[C@H]1O)N2", "note": "[DISCORHABDIN L]", "values": [{"measurement": "GI50", "setting": "[1]", "value": 0.79, "unit": "µM"}]}, {"smiles": "Cn1cnc(S[C@H]2[C@H]3C(=O)C=C4S[C@H]5C[C@]42C2=C(N5)C(=O)c4[nH]cc5c4C2=[N+]3CC5)c1C[C@H](N)C(=O)O", "values": [{"measurement": "Activity", "setting": "[2]", "value": "inactive"}]}, {"smiles": "O=C([O-])C(F)(F)F.[2H]C([2H])([2H])c1[nH]c2c3c1CC[N+]1=C3C3=C(N[C@@H]4C[C@@]35C(=CC(=O)[C@@H]1[C@@H]5O)S4)C2=O", "values": [{"measurement": "IC50", "setting": "[8]", "value": 1.41, "unit": "µM"}, {"measurement": "IC50", "setting": "[9]", "value": 6.2, "unit": "µM"}, {"measurement": "IC50", "setting": "[10]", "value": 0.72, "unit": "µM"}, {"measurement": "GI50", "setting": "[1]", "value": 1.65, "unit": "µM"}, {"measurement": "IC50", "setting": "[11]", "value": 1.99, "unit": "µM"}, {"measurement": "IC50", "setting": "[12]", "value": 2.5, "unit": "µM"}, {"measurement": "IC50", "setting": "[13]", "value": 0.25, "unit": "µM"}]}]}
